“Also recorded” adds a separate entry of the source.
What was measured:
Bdnf = Bdnf qPCR after microinfusion of Npbwr1 ligands into the NAc; assay type: in vivo, mice
Source text: (§1) RNA purification and quantification. […] RNA was washed in isopropanol and 75% Ethanol. […] Primer sequences are listed in the supplementary material. Quantitative PCR results were processed as described ^22.
(§2) AAVs, stereotaxic surgery and microinjection.

mice [1] = assay: Forced swim test after CVS and ligand microinfusion; assay type: in vivo; conditions: microinfused after last stress induction, tested app. 24 h later
Experimental: (§3) Drugs and chemicals. […] After CVS, no tail suspension test was conducted, as tail suspension is part of the stress-induction protocol. […] The CVS-protocol was performed as described ^13. […] Stressors consist of one hour of either, tube restraint, tail suspension or 100 mild electric random […]. If only female experimenters were present, a used male t-shirt was wrapped in clean protective clothing from the animal unit and placed into the experimental room in order to avoid variability due to sex-specific scents of the scientists ^24. All experiments were conducted in the light phase of the light-cycle to allow comparability with previous experiments ^22.

mice [2] = assay: Splash test after CVS and ligand microinfusion; assay type: in vivo; conditions: tested app. 24 h after microinfusion
Experimental: as §3

mice [3] = assay: Sucrose preference after CVS and ligand microinfusion; assay type: in vivo; conditions: tested app. 24 h after microinfusion
Experimental: as §2
(§4) Behavioral tests and CVS. The acute behavioral tests forced swim test, tail suspension test, sucrose preference, splash test and novelty suppressed feeding were performed as described ^13,23. After CVS, no tail suspension test was conducted, as tail suspension is part of the stress-induction protocol. For CVS-groups, caffeine was injected at the last day of CVS (day 21), just prior to the stressor. The CVS-protocol was performed as described ^13. […] Stressors consist of one hour of either, tube restraint, tail suspension or 100 mild electric random […]. If only female experimenters were present, a used male t-shirt was wrapped in clean protective clothing from the animal unit and placed into the experimental room in order to avoid variability due to sex-specific scents of the scientists ^24. All experiments were conducted in the light phase of the light-cycle to allow comparability with previous experiments ^22.

mice [4] = assay: Tests for depressive-like behavior (forced swim, splash, sucrose preference) 24 h after ligand microinjection; assay type: in vivo; conditions: 24 h later; for behavioral effects of CVS: CVS mice, 1 nM NPB or 1 µM CYM50769 into NAc after last stress session; for depressive-like behaviors: naïve mice, 1 nM NPB or 1 µM CYM50769 into NAc
Experimental: as §2, §4
Next, the rapid effects of Npbwr1 activity were tested on depressive-like behaviors in vivo. To that end, mice underwent CVS and were microinjected with 1 nM NPB and 1 µm CYM50769 after the last session of stress induction. Behavioral tests were conducted 24 h later. […] In contrast, CYM50769 had no effects in naïve mice.

Bcl2 = assay: qPCR of apoptosis marker Bcl2 after microinfusion into the NAc; assay type: in vivo, mice; conditions: 1nmolar NPB or 1 µmolar CYM50769 into NAc, tissue 24 h later
Source text: as §1, §2

Casp3 = assay: qPCR of apoptosis marker Casp3 after microinfusion into the NAc; assay type: in vivo, mice; conditions: 1nmolar NPB or 1 µmolar CYM50769 into NAc, tissue 24 h later
Source text: as §1, §2

Per2 = assay: qPCR of circadian gene Per2 after microinfusion into the NAc; assay type: in vivo, mice; conditions: 1nmolar NPB or 1 µmolar CYM50769 into NAc, tissue 24 h later
Source text: as §1, §2

mice [5] = conditions: acute microinfusion into NAc
Experimental: Drugs and chemicals. Mice were intraperitoneally (i.p.) injected with 7.5 mg/kg caffeine (#, C0750, Sigma) or saline at an injection volume of 10ml/kg body weight and tested 2 or 24 h later.
In order to address the rapid acting aspects of the Npbwrl-pathway, ligands were microinjected into the NAc that activate (NPB) or inhibit (CYM50769) Npbwr1. While NPB is a natural neurotransmitter, CYM50769 is a synthetic ligand, which has not been tested in vivo. […] Doses of 0.1 µM, 1 µM and 10 µM CYM50769 were injected and mice were scored for health markers for 7 days.

mice [6] = assay: Behavioral tests after chronic variable stress (CVS), 24h after caffeine; assay type: in vivo; conditions: female mice after CVS, 7.5 mg/kg caffeine i.p., tested 24h later
Experimental: as §4

NAc dendritic spines = assay: NAc dendritic spine analysis after CVS and caffeine; assay type: in vivo, mice
Source text: as §2
Dendritic spine analysis. The analysis was based on detecting the AAVs' GFP-fluorophores. Photos of 40 µm PFA-fixed brain sections were taken with a Zeiss LSM 880 confocal microscope using the AiryScan method. Maximum intensity projections were obtained using Zen Black and Zen Blue software and analysed in NeuronStudio (CNIC, Mount Sinai School of Medicine). The total density of spines, proportions of thin, mushroom and stubby spines as well as the cumulative neck-length were determined in Graph Prism. Neck-containing mushroom density refer to the sum of thin and mushroom spine densities.

Npbwr1 = Npbwr1 expression in NAc after caffeine (RNA-sequencing, qPCR); assay type: in vivo, mice
Source text: as §1
(§5) Next-generation RNA-sequencing. An in-house RNA-sequencing analysis pipeline was applied as described ^25. After artificial depletion of ribosomal RNA (rRNA) transcripts from the data set, more than 90% of reads aligned to the reference genome GRCm38, indicating excellent sample quality. Only changes that reached an adjusted P-value < 0.05 and a log2FC 0.5 <> - 0.5 were further considered.
(§6) To determine caffeine-regulate transcripts, next-generation RNA-sequencing 2h after caffeine-injection on NAc of wildtype (WT) and T75A mice were performed. Tissue was collected at four time points along the diurnal clock ^14. As expected, significant changes in circadian markers were observed, which oscillated in the expected manner across the four measured time points (Per1, Per2, Cry1, Bmal), both in WT and T75A-DARPP-32 mutant mice (Figure 3). […] Altered transcripts belonged to a variety of cellular signaling pathways, including synaptic transmission, transcriptional regulation and hormonal signaling (Figure 4C).

[7] = test system: NAc of wildtype (WT) and DARPP-32-T75A mutant mice; assay: RNA-sequencing of NAc 2h after caffeine injection; assay type: in vivo; conditions: active and inactive phases
Experimental: as §5, §6

mice [8] = assay: Escape behavior tests in naive WT and T75A mice 24h after caffeine; assay type: in vivo; conditions: naïve WT mice; 7.5 mg/kg caffeine in the dark phase; tested 24h later
Experimental: as §4

circadian genes = assay: Read-counts of circadian genes (Per1, Per2, Cry, Bmal) after caffeine; assay type: in vivo, mice; conditions: normalized read-counts for Per1, Per2, Cry, 2h after caffeine
Experimental: as §5, §6

mice [9] = conditions: both sexes; reference 14; cited from earlier work
mice [10] = assay: Forced swim test after CVS and ligand microinfusion; assay type: in vivo; conditions: naive mice; 1 nM NPB or 1 µM CYM50769 into NAc; tested app. 24 h later
Experimental: as §2, §4

mice [11] = assay: Splash test after CVS and ligand microinfusion; assay type: in vivo; conditions: naive mice; tested app. 24 h after microinfusion
Experimental: as §2, §4

mouse brain = conditions: intracerebroventricular injection; reference 15; cited from earlier work
[12] = 1nmolar NPB or 1 µmolar CYM50769 microinfused into NAc, tissue collected 24 h later

With COc1ccc(Oc2c(Cl)cnn(C3c4ccccc4-c4ccccc43)c2=O)cc1 [CYM50769] the Bdnf (Bdnf; [12]) was “increases Bdnf; also recorded: altered Bdnf-levels”, the Bdnf (Bdnf; 1 µmolar CYM50769 microinfused into NAc, single dose, tissue collected 7 days later) was “persists at the 7 day time point” and the Bdnf (Bdnf; 1 µmolar CYM50769 microinfused into NAc, single dose, tissue collected 7 days later, listed as CYM5069) was “altered Bdnf levels starting at 24h for up to 7 days”. The “Forced swim test, CVS-effects” value (mice [1]) was “blocks CVS-effects”, the “Splash test, CVS-effects” value (mice [2]) was “blocks CVS-effects” and the “Sucrose preference, CVS-effects” value (mice [3]) was “rescues CVS-effects”. The “behavioral effects of CVS” value (mice [4]) was “rescued CVS-effects; also recorded: blocked those”, the “behavioral effects of CVS” value (mice [4]; listed as CYM5069) was “reversed effects of chronic stress on behavior” and the depressive-like behaviors (mice [4]) was “no effects”. The “Bcl2 (apoptosis marker)” value (Bcl2) was “No effect; also recorded: Neither NPB nor CYM50769 affected”, the “Casp3 (apoptosis marker)” value (Casp3) was “does not alter; also recorded: Neither NPB nor CYM50769 affected” and the “Per2 (circadian gene)” value (Per2) was “not affected; also recorded: did not alter”. For the same compound, the “selectivity and tolerability of an acute dose” value (mice [5]) was “selective and well tolerated”.

With Cn1c(=O)c2c(ncn2C)n(C)c1=O [caffeine] the stress-induced behavioral changes (mice [6]) was “reversed; also recorded: improved stress-induced behavioral changes”, the “CVS-induced changes in NAc dendritic spines” value (NAc dendritic spines; females, 24h after caffeine injection) was “reversed by caffeine back to naive levels” and the Cumulative head diameter (NAc dendritic spines; females, CVS, 24h after caffeine) was “reversed”. For the same compound, the CVS-induced spine changes (NAc dendritic spines; males, CVS, caffeine) was “partially reversed”, the Cumulative head diameter (NAc dendritic spines; males, CVS, caffeine) was “reversed” and the Npbwr1 levels (Npbwr1; 24h after caffeine injection, dark phase) was “decreased; also recorded: reduced”. For the same compound, the Npbwr1 expression (Npbwr1; WT mice, 2h after caffeine injection, end of the dark phase) was “increased”, the caffeine-induced transcriptional changes [7] was “biggest effect of caffeine occurs in WT in the active phase; also recorded: occurred in WT in the active (dark) phase” and the Escape behaviors (mice [8]) was “altered”. For the same compound, the “amplitude of circadian oscillations” value (circadian genes) was “may slightly flatten the amplitude” and the mood-elevating effects (mice [9]) was “only occurred in the active (dark) phase”.

For “NPB: natural agonist of Npbwr1, a natural neurotransmitter; short biologically active peptide (#CSB-MP015971HU-100, Cusabio)”, the Bdnf (Bdnf; [12]) was “decreases Bdnf; also recorded: altered Bdnf-levels; also recorded: opposing effect on Bdnf”, the “Sucrose preference, ratio of sucrose solution consumed” value (mice [3]; naive mice) was “reduce the ratio of sucrose solution consumed” and the “behavioral effects of CVS” value (mice [4]) was “not enhancing the behavioral effects of CVS further”. The depressive-like behaviors (mice [4]) was “elicited depressive-like behaviors; also recorded: increased depressive-like behaviors; also recorded: mimicked chronic stress effects”, the “Per2 (circadian gene)” value (Per2) was “not affected; also recorded: did not alter” and the “Forced swim test, immobility time” value (mice [10]) was “increases immobility time”. For the same compound, the “Splash test, grooming” value (mice [11]) was “may reduce grooming” and the feeding (mouse brain) was “induced hyperphagia after 2 h, followed by hypophagia”.

Reference: patent EP4512403A1, “NEUROPEPTIDE B AND W-RECEPTOR AS A TARGET FOR TREATING MOOD DISORDERS AND/OR CHRONIC STRESS” (Friedrich-Schiller-Universität Jena, priority 2023, dated 2025)
